SMILES strings stand for the structures. Bridge positions count the residues as written; N and C are the ends. Square brackets hold non-standard residues; d marks the D form. Peptide text beside a SMILES is read from it. Ahx = NCCCCCC(=O)O

Experiment [1] deals with T1, Neuropeptide Y receptor type 2 (Homo sapiens, UniProt P49146).
T1 sequence (P49146 whole entry): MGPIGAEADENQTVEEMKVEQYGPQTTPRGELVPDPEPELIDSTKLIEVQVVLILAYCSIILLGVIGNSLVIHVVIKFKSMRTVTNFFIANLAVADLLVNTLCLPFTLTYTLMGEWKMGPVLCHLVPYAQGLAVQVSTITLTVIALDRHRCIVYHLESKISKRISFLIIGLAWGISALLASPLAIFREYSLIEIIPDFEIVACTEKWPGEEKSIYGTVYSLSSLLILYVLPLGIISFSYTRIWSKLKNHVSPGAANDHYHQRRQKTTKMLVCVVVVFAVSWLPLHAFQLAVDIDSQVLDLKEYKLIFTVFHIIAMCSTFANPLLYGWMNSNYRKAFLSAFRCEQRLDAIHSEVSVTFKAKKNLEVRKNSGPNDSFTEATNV
Nature of the experiment: Activation of human Y2R expressed in HEK293 cells assessed as inhibition of isoproterenol-induced increase in intracellular cAMP levels by calcium 5 dye-based FLIPR assay. It is filed as functional, cell-based. Conditions: read-out: EC50. On the technique in general: Changes in cAMP serve as a functional read-out for many G protein-coupled receptors.

For experiment [2], the target named is T2, Neuropeptide Y receptor type 1 (Homo sapiens, UniProt P25929).
T2 sequence (P25929 whole entry): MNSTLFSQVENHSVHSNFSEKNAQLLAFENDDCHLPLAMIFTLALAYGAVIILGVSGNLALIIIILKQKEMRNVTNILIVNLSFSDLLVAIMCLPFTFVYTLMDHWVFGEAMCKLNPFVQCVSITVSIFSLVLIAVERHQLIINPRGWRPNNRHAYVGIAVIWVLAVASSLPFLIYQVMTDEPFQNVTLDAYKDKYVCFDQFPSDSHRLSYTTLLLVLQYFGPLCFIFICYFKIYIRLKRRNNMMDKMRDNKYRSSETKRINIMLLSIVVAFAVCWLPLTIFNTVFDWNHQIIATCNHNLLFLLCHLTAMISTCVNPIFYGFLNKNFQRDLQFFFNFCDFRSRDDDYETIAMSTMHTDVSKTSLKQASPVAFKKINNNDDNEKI
Nature of the experiment: Displacement of [125I]-PYY(1 to 36 residues) from human Y1R expressed in BHK-21 cell membranes after 2 hrs by scintillation proximity assay.

Experiment [3] addresses T3, Neuropeptide Y receptor type 5 (Homo sapiens, UniProt Q15761).
T3 sequence (Q15761 whole entry): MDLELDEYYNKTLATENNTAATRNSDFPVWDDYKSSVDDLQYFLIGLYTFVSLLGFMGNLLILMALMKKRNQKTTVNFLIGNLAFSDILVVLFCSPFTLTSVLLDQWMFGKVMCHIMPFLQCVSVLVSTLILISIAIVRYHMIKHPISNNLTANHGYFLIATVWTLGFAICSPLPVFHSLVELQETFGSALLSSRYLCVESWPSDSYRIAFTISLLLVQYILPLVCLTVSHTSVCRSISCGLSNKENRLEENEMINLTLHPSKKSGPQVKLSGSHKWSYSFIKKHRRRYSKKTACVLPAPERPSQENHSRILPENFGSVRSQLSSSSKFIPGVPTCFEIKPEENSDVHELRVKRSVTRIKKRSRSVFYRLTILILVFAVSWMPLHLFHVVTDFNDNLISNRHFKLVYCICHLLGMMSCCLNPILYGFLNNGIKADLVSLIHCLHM
Nature of the experiment: Displacement of [125I]-PYY(1 to 36 residues) from human Y5R expressed in HEK293 cell membranes after 2 hrs by scintillation proximity assay. (In general: In a radioligand displacement assay an active substance lowers the binding of a labelled ligand.)

The species named for experiment [4] is Homo sapiens. Nature of the experiment: Selectivity ratio of Ki for human Y1R expressed in BHK-21 cell membranes to Ki for human Y2R expressed in CHO cell membranes. The class given is cell-based.
Experiment [5] has as its target T4, Neuropeptide Y receptor type 4 (Homo sapiens, UniProt P50391). Nature of the experiment: Activation of human Y4R expressed in HEK293 cells assessed as inhibition of isoproterenol-induced increase in intracellular cAMP levels by calcium 5 dye-based FLIPR assay. The class given is functional, cell-based. Conditions: for pEC50: hek293.
The species named for experiment [6] is Homo sapiens. Nature of the experiment: Selectivity ratio of Ki for human Y5R expressed in HEK293 cell membranes to Ki for human Y2R expressed in CHO cell membranes. The class given is cell-based.
The target in experiment [7] is T4, Neuropeptide Y receptor type 4. Nature of the experiment: Displacement of [125I]-PP from human Y4R expressed in CHO-K1 cell membranes after 2 hrs by scintillation proximity assay.
The species named for experiment [8] is Homo sapiens. Nature of the experiment: Selectivity ratio of Ki for human Y4R expressed in CHO-K1 cell membranes to Ki for human Y2R expressed in CHO cell membranes. The class given is cell-based.
The target of experiment [9] is T1, Neuropeptide Y receptor type 2. Nature of the experiment: Displacement of [125I]-PYY(1 to 36 residues) from human Y2R expressed in CHO cell membranes after 2 hrs by scintillation proximity assay.
Experiment [10] deals with T2, Neuropeptide Y receptor type 1. Nature of the experiment: Activation of human Y1R expressed in HEK293 cells assessed as inhibition of isoproterenol-induced increase in intracellular cAMP levels by calcium 5 dye-based FLIPR assay. It is filed as functional, cell-based. Conditions: for pEC50: hek293; for EC50: read-out: EC50.
In experiment [11] the target is T3, Neuropeptide Y receptor type 5. Nature of the experiment: Activation of human Y5R expressed in HEK293 cells assessed as inhibition of isoproterenol-induced increase in intracellular cAMP levels by calcium 5 dye-based FLIPR assay. The class given is functional, cell-based.

T4 sequence (P50391 whole entry): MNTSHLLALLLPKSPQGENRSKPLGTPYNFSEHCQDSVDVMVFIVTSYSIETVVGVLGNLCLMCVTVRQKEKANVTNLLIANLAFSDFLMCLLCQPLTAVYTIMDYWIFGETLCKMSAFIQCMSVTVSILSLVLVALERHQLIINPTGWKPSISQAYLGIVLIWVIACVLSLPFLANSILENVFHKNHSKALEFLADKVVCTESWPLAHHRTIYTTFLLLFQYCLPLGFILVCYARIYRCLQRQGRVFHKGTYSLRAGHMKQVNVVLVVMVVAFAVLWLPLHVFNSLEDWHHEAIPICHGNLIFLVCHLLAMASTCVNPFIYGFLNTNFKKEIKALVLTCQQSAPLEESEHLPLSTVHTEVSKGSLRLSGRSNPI

On to `CC[C@H](C)[C@@H]1NC(=O)[C@H](Cc2ccc(O)cc2)NC(=O)[C@H](Cc2cnc[nH]2)NC(=O)[C@H](CCCNC(=N)N)NC(=O)CCCCCNC(=O)[C@H](CCCCN)NC(=O)[C@H](CO)NC(=O)[C@@H](NC(=O)[C@@H](N)Cc2ccc(O)cc2)CCC(=O)NCCCC[C@@H](C(=O)N[C@H](C(=O)N[C@H](C(=O)N[C@@H](CCCNC(=N)N)C(=O)N[C@@H](CCC(N)=O)C(=O)N[C@@H](CCCNC(=N)N)C(=O)N[C@@H](Cc2ccc(O)cc2)C(=O)O)[C@@H](C)O)[C@@H](C)CC)NC(=O)[C@H](CC(N)=O)NC1=O` (H-YESK[Ahx]RHYINKITRQRY-OH; lactam 2-11), for which the EC50 (in general, the concentration giving half of the maximal effect) in experiment [1] was 7.6 nM; in experiment [5], over 1000 nM; in [10], over 1000 nM; in experiment [11], 500 nM. Besides, the Ki (usually a measure of affinity in units of concentration, obtained from inhibition or displacement) in [2] was 500 nM; in experiment [3], 630 nM; in experiment [7] it was 25 nM; in [9], 2 nM. The results for the Ratio Ki in [4], in experiment [6] and in [8] were 250, 320 and 13, respectively. The pEC50 in experiment [5] and in [10] was under 6 each time.
Consider `CC[C@H](C)[C@@H]1NC(=O)[C@H](CC(C)C)NC(=O)[C@H](CC(N)=O)NC(=O)[C@@H](NC(=O)[C@H](Cc2ccc(O)cc2)NC(=O)[C@H](Cc2cnc[nH]2)NC(=O)[C@H](CCCNC(=N)N)NC(C)=O)CCC(=O)NCCCC[C@@H](C(=O)N[C@@H](CCCNC(=N)N)C(=O)N[C@@H](CCC(N)=O)C(=O)N[C@@H](CCCNC(=N)N)C(=O)N[C@@H](Cc2ccc(O)cc2)C(=O)O)NC1=O` (Ac-RHYENLIKRQRY-OH; lactam 4-8), for which the Ki in experiment [2] was over 10000 nM; in experiment [3], 5000 nM; in [7], 1600 nM; in experiment [9] it was 79 nM. In addition, the pKi (usually −log10 of the Ki, conventionally taken in molar units) in experiment [2] (bhk-21) is under 5. Further, the Ratio Ki in experiment [4] is over 130; in experiment [6] it was 63; in [8] it was 20.
Take `CC[C@H](C)[C@H](NC(=O)[C@H](Cc1ccc(O)cc1)NC(=O)[C@H](Cc1c[nH]cn1)NC(=O)[C@H](CCCN=C(N)N)NC(=O)CCCCCNC(=O)[C@H](CCCCN)NC(=O)[C@H](CO)NC(=O)[C@@H]1CCCN1C(=O)[C@@H](N)Cc1ccc(O)cc1)C(=O)N[C@@H](CC(N)=O)C(=O)N[C@@H](CC(C)C)C(=O)N[C@H](C(=O)N[C@H](C(=O)N[C@@H](CCCN=C(N)N)C(=O)N[C@@H](CCC(N)=O)C(=O)N[C@@H](CCCN=C(N)N)C(=O)N[C@@H](Cc1ccc(O)cc1)C(=O)O)[C@@H](C)O)[C@@H](C)CC` (H-YPSK[Ahx]RHYINLITRQRY-OH): the Ratio Ki in experiment [4] is 31; in [6] it was 100; in [8], 15.
On to `CC[C@H](C)[C@H](NC(=O)[C@H](Cc1ccc(O)cc1)NC(=O)[C@H](Cc1cnc[nH]1)NC(=O)[C@H](CCCNC(=N)N)NC(=O)CCCCCNC(=O)[C@H](CCCCN)NC(=O)[C@H](CO)NC(=O)[C@@H]1CCCN1C(=O)[C@@H](N)Cc1ccc(O)cc1)C(=O)N[C@@H](CC(N)=O)C(=O)N[C@@H](CC(C)C)C(=O)N[C@H](C(=O)N[C@H](C(=O)N[C@@H](CCCNC(=N)N)C(=O)N[C@@H](CCC(N)=O)C(=O)N[C@@H](CCCNC(=N)N)C(=O)N[C@@H](Cc1ccc(O)cc1)C(=O)O)[C@@H](C)O)[C@@H](C)CC` (H-YPSK[Ahx]RHYINLITRQRY-OH), for which the inhibitory constant (Ki) was 400 nM in [2], 1300 nM in experiment [3], 200 nM in experiment [7] and 13 nM in experiment [9].
As for `CC[C@H](C)[C@H](NC(=O)[C@H](Cc1ccc(O)cc1)NC(=O)[C@H](CCCNC(=N)N)NC(=O)[C@H](CCCNC(=N)N)NC(=O)[C@H](CC(C)C)NC(=O)[C@H](CC(=O)O)NC(=O)[C@H](C)NC(=O)[C@H](C)NC(=O)[C@H](Cc1ccc(O)cc1)NC(=O)[C@H](CCC(N)=O)NC(=O)[C@H](C)NC(=O)[C@H](CCSC)NC(=O)[C@H](CCC(N)=O)NC(=O)[C@H](CCC(=O)O)NC(=O)[C@@H]1CCCN1C(=O)[C@@H](NC(=O)[C@H](C)NC(=O)[C@H](CC(N)=O)NC(=O)[C@H](CC(=O)O)NC(=O)CNC(=O)[C@@H]1CCCN1C(=O)[C@H](Cc1ccc(O)cc1)NC(=O)[C@@H](NC(=O)[C@@H]1CCCN1C(=O)[C@H](CCC(=O)O)NC(=O)[C@H](CC(C)C)NC(=O)[C@@H]1CCCN1C(=O)[C@H](C)N)C(C)C)[C@@H](C)O)C(=O)N[C@@H](CC(N)=O)C(=O)N[C@@H](CCSC)C(=O)N[C@@H](CC(C)C)C(=O)N[C@H](C(=O)N[C@@H](CCCNC(=N)N)C(=O)N[C@@H](CCC(N)=O)C(=O)N[C@@H](CCCNC(=N)N)C(=O)N[C@@H](Cc1ccc(O)cc1)C(=O)O)[C@@H](C)O`, the EC50 in experiment [1] stood at 16 nM; in experiment [5] it was 0.2 nM; in [10] it was 16 nM; in experiment [11], 6.3 nM. For the same molecule, the inhibition constant Ki in experiment [2] stood at 40 nM; in experiment [3] it was 1.3 nM; in [7] it was 0.1 nM; in experiment [9] it was 6.3 nM. For the same molecule, the Ratio Ki in experiment [4] was 6.3; in [6], 0.21; in experiment [8], 0.02.
As to `CC[C@H](C)[C@@H]1NC(=O)[C@@H](NC(=O)[C@@H](N)Cc2ccc(O)cc2)CCC(=O)NCCCC[C@@H](C(=O)N[C@H](C(=O)N[C@H](C(=O)N[C@@H](CCCNC(=N)N)C(=O)N[C@@H](CCC(N)=O)C(=O)N[C@@H](CCCNC(=N)N)C(=O)N[C@@H](Cc2ccc(O)cc2)C(=O)O)[C@@H](C)O)C(C)C)NC(=O)[C@H](CC(N)=O)NC(=O)[C@H](CC(C)C)NC(=O)[C@H](Cc2ccc(O)cc2)NC(=O)[C@H](Cc2cnc[nH]2)NC(=O)[C@H](CCCNC(=N)N)NC(=O)CCCCCNC(=O)[C@H](CCCCN)NC1=O`, the EC50 in experiment [1] was 2 nM; in experiment [5], over 1000 nM; in [10], over 1000 nM; in experiment [11], 400 nM. In addition, the Ki in experiment [2] was 1300 nM; in experiment [3], 790 nM; in experiment [7], 50 nM; in experiment [9], 1.3 nM. For the same molecule, the results for the Ratio Ki in experiment [4], in [6] and in [8] were 1000, 610 and 39, respectively. The negative-log EC50 (pEC50) in [5] and in experiment [10] was under 6 throughout.
